Results taken from patent publication US20150320782A1, “Methods, compositions and kits for treating, modulating, or preventing ocular angiogenesis or fibrosis in a subject using a galectin protein inhibitor” (TUFTS UNIVERSITY, priority 2012, published 2015).
Where “and” joins values, the source holds several entries; their conditions need not be identical. Equal values may be shown once. Entries after “also recorded” stand apart in the source; their conditions may differ. Each block holds one compound with its values, some of them ahead of it.

Experiments:
[1] = test system: TM cells on galectin-8 coated wells; settings: cited from earlier work
galectin-1 / VEGFR-2 = biological target: T1, galectin-1 / VEGFR-2 (Homo sapiens, UniProt P09382); test: HUVEC lysate VEGFR-2 pull-down on galectin-1 agarose beads; assay type: binding; settings: 0.1 M saccharide
T1 construct: host or cells: VEGFR-2: endogenous, HUVEC lysate
T1 sequence (P09382 whole entry): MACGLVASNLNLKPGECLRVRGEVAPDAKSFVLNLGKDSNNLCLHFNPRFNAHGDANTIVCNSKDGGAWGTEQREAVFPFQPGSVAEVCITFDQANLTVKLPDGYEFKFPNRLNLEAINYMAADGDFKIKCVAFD
Text: FIG. 12 is a photomicrograph of a western blot showing that galectin-1 and galectin-3 interacted with VEGFR-2. […] Control samples contained only HUVEC lysates or beads. Bound material was eluted with Laemmli sample buffer, added to 4-20% SDS-PAGE gels, and electrophoresed. Gels were transferred onto membrane blots, which was then probed with anti-VEGFR-2 antibody. VEGFR-2 antibody was observed bound to the HUVEC lysate control and not to the bead only control. […] Thus, the interaction between VEGFR-2 and galectin-1 and galectin-3 was observed herein to be carbohydrate-dependent.
Control HUVEC lysates were incubated with galectin-1 agarose beads or galectin-3 agarose beads only. The beads were rinsed to remove unbound material.
HUVEC lysate material bound to the beads was eluted with the Laemmli sample buffer and was analyzed using gel electrophoresis (4-20% SDS-PAGE gels). Following blocking, membrane blots were probed using anti-VEGFR-2 antibody (FIG. 12). […] Further, the VEGFR2 HUVEC lysate binding to the beads was […] for beads treated with sucrose, a noncompeting saccharide.

galectin-3 / VEGFR-2 = biological target: T2, galectin-3 / VEGFR-2 (Homo sapiens, UniProt P17931); test: HUVEC lysate VEGFR-2 pull-down on galectin-3 agarose beads; assay type: binding; settings: 0.1 M saccharide
T2 construct: host or cells: VEGFR-2: endogenous, HUVEC lysate
T2 sequence (P17931 whole entry): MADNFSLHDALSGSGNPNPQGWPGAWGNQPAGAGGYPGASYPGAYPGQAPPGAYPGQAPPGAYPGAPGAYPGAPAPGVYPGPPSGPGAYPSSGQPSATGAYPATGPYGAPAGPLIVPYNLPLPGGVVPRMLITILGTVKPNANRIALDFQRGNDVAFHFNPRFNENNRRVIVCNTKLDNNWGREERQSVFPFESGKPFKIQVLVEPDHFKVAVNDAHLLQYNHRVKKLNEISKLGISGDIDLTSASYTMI

mouse corneas [2] = test: Silver nitrate cautery-induced corneal neovascularization, TD139; assay type: in vivo; settings: TD139 325 ng sub-conjunctival every other day, 50 μM eye drops daily; day five after cautery; control about 40%
Text: FIG. 11A is a drawing of an experimental regimen for drug administration in murine subjects strain C57B/6L. […] Silver nitrate was applied on day zero to cauterize the eyes of the subjects. Mice were sacrificed on day five, and flat mounts of corneas were stained with anti-CD31 to visualize blood vessels. Data shown in FIG. 11 B-C were from subjects treated as described in FIG. 11A.
Neovascularization in the eye was induced in mouse corneas by cauterization using silver nitrate. […] Control subjects were sub-conjunctivally injected with vehicle only (PBS containing 0.5% DMSO only).
After five days of either sub-conjunctival injection treatment or eye drop treatment, subjects were sacrificed, and flat mounts of corneas were excised, photographed, and stained with anti-CD31 to visualize blood vessels (FIG. 11B, magnification is ×100). The density of blood vessels covering the whole cornea was quantified by ImageJ and was analyzed with Student's t test (FIG. 11C).

mouse corneas [3] = test: Alkali (sodium hydroxide) model of corneal fibrosis; settings: vs PBS
Procedure: C57BJ/6 mice were anesthetized by intraperiteoneal injection of a mixture of ketamine and xylazine. Corneas of the subjects were topically anesthetized by applying an eye drop of proparacain. 1.5 μl drop of 0.15M sodium hydroxide was applied for one minute to the central cornea of each subject. Each eye was immediately washed extensively in PBS, and corneal epithelium and limbal epithelium were gently removed with an ALGEBRUSH™ optical device (Storz Ophthalmic Instruments, St. Louis, Mo.). Each cornea was covered with an antibiotic ointment. […] Control subjects were injected subconjunctivally with control vehicle PBS. Corneas were visualized and analyzed for opacity, and protein markers for fibrosis were quantified as described below.
Mice were sacrificed at day 14 post surgery using a mixture of ketamine and xylazine. Mouse corneas were dissected and lysed in ice-cold lysis buffer containing 5 mM NaF, 1 mM PMSF, 1 mM DTT, 20 mM HEPES, 1 mM EDTA, 400 mM NaCl, 1 mM EGTA, 0.1% NP-40, and a protease inhibitor cocktail product (Roche). Aliquots of corneal protein (20 μg) were loaded to each lane of a gel and transferred onto a nitrocellulose membrane. Blots were probed overnight at 4° C. with either a rabbit antibody specific for α-smooth muscle actin (10,000 dilution; Abcam Inc., Cambridge, England), or with a control antibody specific for β-actin. The blots were extensively washed and were incubated with goat anti rabbit IRDye 800CW antibody (1:10,000 dilution; LI-Cor Biosciences; Lincoln Nebr.). Membranes were scanned and quantified using an Odessey imaging system (Li-Cor Biosciences).
C57BJ/6 mice were anesthetized by intraperiteoneal injection of ketamine and xylazine mixture. […]
Subjects were sacrificed on day fourteen after alkalisurgery using a mixture of ketamine and xylazine. […] The membranes were washed and incubated with goat anti rabbit IRDye 800CW antibody (1:10,000; Li-Cor Inc.), the membranes were scanned and quantified with Odessey imaging system (Li-Cor Inc.).
SMA (smooth muscle actin) is a marker of corneal fibrosis. […] Opacity of the eye was scored on day 7 and day 14. […]

recombinant galectin-3 = recombinant galectin-3 (Homo sapiens, UniProt P17931); test: Microtiter plate binding assay with galectin receptor-HRP conjugate, galectin-3; settings: plate coated with recombinant galectin-3
Chain of recombinant galectin-3 (P17931 whole entry): as above
Procedure: Microtiter plate wells were coated with recombinant galectin-1 or galectin-3 (10 μg/ml, 50 μl/well), and then washed with wash solutions containing PBS and detergent. The wells were blocked with BSA, and washed with wash solution/buffer. […] Control wells included PBS only. An amount of galectin receptor-HRP conjugate (100 μL/well, 1 mg/mL) specific for either galectin-1 or galectin-3 was added to the respective wells. The wells were incubated for one hour and then washed with buffer at room temperature. The horse-radish peroxidase enzyme reaction was performed using a TMB-peroxidase substrate kit (BioRad Inc.). The reaction was stopped after one hour by addition of 1N sulfuric acid (100 μL/well) and the optical density was read at 450 nm.

HUVEC spheroids = test: VEGF-A-induced HUVEC spheroid sprouting in type I collagen gels; assay type: cell-based, human; settings: VEGF-A 100 ng/ml; TD139 0.1, 1, 5 and 10 μM; 24 hours
Procedure: HUVEC spheroids were prepared and seeded into type I collagen gels. […] Control collagen samples were treated with 100 μl of EBM-2 and 25 ng/mL VEGF in EBM-2. […] After a 24 hour incubation, spheroids were stained with calcein AM dye and photographed by a fluorescent microscope. Cumulative sprout lengths for HUVEC in gels were quantified by ImageJ.
HUVEC spheroids were prepared as described in examples herein, and the spheroids were seeded into type I collagen gels. […] Control spheroids were treated with neither VEGF-A nor TD139. After 24 hours of treatment, spheroids were stained with calcein AM, a cell-permeant dye that indicates cell viability in eukaryotic cells (Invitrogen Inc.), and the spheroids were photographed by a fluorescent microscope. Cumulative sprout lengths were quantified by ImageJ.

recombinant galectin-1 = recombinant galectin-1 (Homo sapiens, UniProt P09382); test: Microtiter plate binding assay with galectin receptor-HRP conjugate, galectin-1; settings: plate coated with recombinant galectin-1
Chain of recombinant galectin-1 (P09382 whole entry): as the sequence (P09382 whole entry) above

[4] = test system: endothelial cell (EC) spheroids (HUVEC); assay type: cell-based
Procedure: Methyl cellulose powder (6 g) was autoclaved with stirring using a magnetic bar in a 500 mL bottle. The powder was dissolved in 250 mL of DMEM medium at 60° C. with stirring for 30 minutes, and then 250 mL DMEM at room temperature was added and the mixture was stirred for two hours at 4° C. The resulting mixture was then aliquoted into 50 mL cylindrical tubes and centrifuged (6170 revolutions per minute) for two hours at room temperature to remove debris interfering with spheroid formation. The clear supernatant was collected from the centrifuged tubes.
Endothelial cells (EC) were cultured in containers and were detached from the container surfaces with 0.25% trypsin. The pH of the trypsinized EC cells was neutralized with DMEM. Spheroid solution was prepared in tubes by combining 3.75 mL of methylcellulose, 1.75 mL FBS, 17.5 μl pen/strep, and […] endothelial cells, and adding DMEM to bring the total volume to 17.5 mL. The spheroid solution was mixed by inverting tubes, and 150 μl aliquots were added to each well of a 96 well plate using a multichannel pippettor and wide mouth tips. Spheroids were settled and were incubated for 24 hours at 37° C. in 5% CO2.
Each 96 well plate yielded spheroids sufficient for four wells of a 24 well plate. The collagen solution was prepared using 2.3 mL (3.9 mg/mL) collagen type 1, 400 μl 10×M199 medium, 200 μl FBS, and 1.1 mL water. The collagen solution was neutralized with sodium hydroxide using a color pH indicator. The methyl cellulose solution (4.5 mL) was combined with 1.5 mL DMEM and warmed to 37° C. in a water bath. EC spheroids were collected using a wide mouth pipette and centrifuged (700 revolutions per minutes) for three minutes at room temperature.
The resulting supernatant was removed, and two mL of methyl cellulose solution were added to the pellet. Neutralized collagen solution (2 mL) was added to the mixture, and mixed using a pipette carefully to avoid bubble formation.
An aliquot (1 mL) of the mixed collagen solution was added to four wells of a 24 well plate, and the plate was incubated at 37 C 5% CO2 for 30 minutes to polymerize the collagen. […] Control collagen samples were treated with 100 μl of EBM-2 and 25 ng/mL VEGF in EBM-2.
See Meyer et al. 2003 J Biol Chem. 278(18): 16347-55. Representative images of the incubated samples were obtained and the cumulative length in arbitrary units of the endothelial cell sprouts was determined by ImageJ processing and analysis procedures. The data was analyzed by Student's t-test (Table 2).

mouse retinas = test: Alkali (sodium hydroxide) model, retinal gliosis (GFAP western blot); settings: 10 μl of 50 mM TD139 subconjunctival daily for 14 days; vs PBS
Procedure: Corneas of murine subjects were contacted with sodium hydroxide. […] Control subjects were injected subconjunctively with PBS control vehicle only. Subjects were sacrificed by ketamine and xylazine on day 14 post surgery. […] Aliquots of retinal protein (30 μg) from lysates, or a control β-actin material were loaded to gels and transferred onto nitrocellulose membranes. Blots were probed overnight at 4° C. with rabbit anti mouse antibody specific for glial fibrillary acidic protein (GFAP; 50,000 dilution; Abcam Inc.; FIG. 18 top row), or with a control antibody specific for β-actin. […] Control blots were probed with rabbit antibody specific for β-actin (FIG. 18 bottom row). The probes were washed and were incubated with goat anti rabbit IRDye 800CW antibody (1:10,000 dilution; LI-Cor Biosciences). Membranes were scanned and quantified using an Odessey imaging system (Li-Cor Biosciences).
C57BJ/6 mice were anesthetized by intraperiteoneal injection of ketamine and xylazine mixture. Corneas were topically anesthetized by application of proparacain eye drop. […]
Subjects were sacrificed on day fourteen after alkalisurgery using a mixture of ketamine and xylazine. […] The membranes were washed and incubated with goat anti rabbit IRDye 800CW antibody (1:10,000; Li-Cor Inc.), the membranes were scanned and quantified with Odessey imaging system (Li-Cor Inc.). […]

VEGFR2 = VEGFR2 expression in HUVEC by western blot; assay type: cell-based, human; settings: 10 μM TD139, six hours
Procedure: Cell lysates were analyzed by electrophoresis in 4-20% SDS-PAGE gels. The gels were transferred to western blot membranes, and were probed with anti-VEGFR-2 antibody (FIG. 15 top row) or β-actin antibody (FIG. 15 bottom row).
Control HUVEC were not treated with TD139. Cell lysates were analyzed using gel electrophoresis (4-20% SDS-PAGE gels), and the membrane blots were probed with either anti-VEGFR-2 antibodies or β-actin antibodies.

HUVEC [5] = test: HUVEC viability by calcein AM and WST-1; assay type: cell-based, human; settings: three hours treatment; TD139 5 μM, Triton X-100 0.1%
Procedure: The cell viabilities of the treated HUVEC and control HUVEC were determined with each of calcein AM and WST-1, two systems used to determine cell viability. Calcein AM was added to a group of treated HUVEC, which were incubated for 30 minutes (FIG. 14A). Another group of treated HUVEC were incubated for two hours with WST-1, a tetrazolium salt used for determining cell proliferation and is an indicator or cell viability (FIG. 14B). Data are plotted with mean±SEM and analyzed with one-way ANOVA. ***P<0.001 vs control. Fluorescence emission was detected by a spectrophotometer for each treated group contacted with either calcein AM or WST-1.

HUVEC [6] = test: VEGF-A-induced endothelial cell migration (chemotaxis chamber); assay type: cell-based, human; settings: three hours
Procedure: FIG. 13B is a bar graph showing migration distance (migration index, ordinate) of HUVEC cells treated with (abscissa) […] as in FIG. 13A. HUVECs were serum starved overnight, detached with proteolytic and collagenolytic enzyme product Accutase™ (Millipore Inc.), resuspended in 1% FBS/M199 and then added to the upper chamber of a migration testing system. […] After three hours of incubation, HUVECs that migrated to lower side of the membrane were counted.
HUVEC were incubated without serum overnight, detached with Accutase, re-suspended in 1% FBS/M199 and added in an upper chamber separated from a bottom chamber by a membrane. […] Control HUVEC were treated with neither VEGF-A nor TD139.
Data were plotted as mean±SEM and analyzed with one-way ANOVA. *P<0.05 vs control; ***P<0.001 vs control; ^###P<0.001 vs VEGF-A.

Inhibition of VEGFR-2 binding to galectin-1 beads (galectin-1 / VEGFR-2): inhibited
Compound: OC[C@H]1O[C@@H](O[C@H]2[C@H](O)[C@@H](O)C(O)O[C@@H]2CO)[C@H](O)[C@@H](O)[C@H]1O (stereo partly shown) [lactose]
Adhesion of TM cells to galectin-8 coated wells [1]: inhibited or prevented

Compound: CC(=O)N[C@H]1[C@H]([C@H](O)[C@H](O)CO)O[C@](OC[C@H]2O[C@@H](O[C@H]3[C@H](O)[C@@H](NC(C)=O)C(O)O[C@@H]3CO)[C@H](O)[C@@H](O)[C@H]2O)(C(=O)O)C[C@@H]1O (stereo partly shown) [NeuAca2-6Galβ1-4GlcNAc]
Spreading of TM cells on galectin-8 protein coated wells [1]: no effect

Inhibition of VEGFR-2 binding to galectin-1 beads (galectin-1 / VEGFR-2): not inhibited
Inhibition of VEGFR-2 binding to galectin-3 beads (galectin-3 / VEGFR-2): not inhibited
Compound: OC[C@H]1O[C@@](CO)(O[C@H]2O[C@H](CO)[C@@H](O)[C@H](O)[C@H]2O)[C@@H](O)[C@@H]1O [sucrose]
Adhesion of TM cells to galectin-8 coated wells [1]: not inhibited

Binding to galectin-3 (recombinant galectin-3): specifically bound
Binding to galectin-1 (recombinant galectin-1): specifically bound
Compound: OC[C@H]1O[C@@H](S[C@@H]2O[C@H](CO)[C@H](O)[C@H](n3cc(-c4cccc(F)c4)nn3)[C@H]2O)[C@H](O)[C@@H](n2cc(-c3cccc(F)c3)nn2)[C@H]1O [TD139, bis-{3-deoxy-3-[4-(3-fluorophenyl)-1H-1,2,3-triazol-1-yl]-β-D-galactopyranosyl}sulfane]
Density of blood vessels covering the cornea (percent area) (mouse corneas [2]): 28%
Corneal opacity (score 0-4) (mouse corneas [3]; 10 μl of 50 mM TD139 subconjunctival daily for 14 days after alkali): area of opacity less than about the site of the pupil; also recorded: reduced corneal opacity
Reduction of α-SMA (smooth muscle actin) expression in corneal lysates (mouse corneas [3]; 10 μl of 50 mM TD139 subconjunctival daily for 14 days): 30%
VEGF-A-induced sprouting (cumulative sprout length) (HUVEC spheroids): significantly inhibited
Decrease of VEGF-mediated EC sprouting ([4]; 10 μM TD139, compared to VEGF alone): about one-third
Reduction of the extent of VEGF-mediated sprouting ([4]; 50 μM TD139): about two-thirds
GFAP expression in retinal lysates (mouse retinas): reduced expression of GFAP
Total protein expression of VEGFR2 (VEGFR2): little or no effect
Calcein AM fluorescence (cell viability) (HUVEC [5]): comparable calcein AM fluorescence
WST-1 signal (cell viability) (HUVEC [5]): comparable cell viability
VEGF-A-induced chemotaxis and migration (HUVEC [6]; TD139 1 to 5000 nM, dose-dependent): significantly abrogated
Concentration as low as which VEGF-A-induced chemotaxis was significantly abrogated (HUVEC [6]; VEGF-A 100 ng/mL): 1 nM

Compound: Triton™ X-100
Calcein AM fluorescence (cell viability) (HUVEC [5]): reduced fluorescence
WST-1 signal (cell viability) (HUVEC [5]): reduced WST-1 fluorescence

Compound: CC(=O)N[C@H]1[C@H]([C@H](O)[C@H](O)CO)O[C@@](O[C@H]2[C@@H](O)[C@@H](CO)O[C@@H](O[C@H]3[C@H](O)[C@@H](NC(C)=O)C(O)O[C@@H]3CO)[C@@H]2O)(C(=O)O)C[C@@H]1O (stereo partly shown) [NeuAca2-3Galβ1-4GlcNAc]
Spreading of TM cells on galectin-8 protein coated wells [1]: inhibited

Compound: VEGF
Fold change in capillary sprouting of EC over control cells not contracted with VEGF and inhibitor ([4]; VEGF 25 ng/mL only): 650 fold and 921 fold and 604 fold and 800 fold
Formation of endothelial cell sprouts compared to medium only ([4]; VEGF 25 ng/mL only): four-fold
